In patent EP4782448A1, “SUBSTITUTED PYRIDOTRIAZOLE COMPOUND, AND PREPARATION METHOD THEREFOR AND USE THEREOF” (Origiant Pharmaceutical Co., Ltd., priority 2023, dated 2025):
Like-named read-outs stand apart in the source and are kept apart here. One block for each molecule: values may come before it.

Legend:
RIPK1 Kinase = molecular target: T1, RIPK1 Kinase (Homo sapiens, UniProt Q13546); test: biochemical
T1 construct: purchased Eurofins (Kinase Profiler service)
T1 sequence (Q13546 1-671): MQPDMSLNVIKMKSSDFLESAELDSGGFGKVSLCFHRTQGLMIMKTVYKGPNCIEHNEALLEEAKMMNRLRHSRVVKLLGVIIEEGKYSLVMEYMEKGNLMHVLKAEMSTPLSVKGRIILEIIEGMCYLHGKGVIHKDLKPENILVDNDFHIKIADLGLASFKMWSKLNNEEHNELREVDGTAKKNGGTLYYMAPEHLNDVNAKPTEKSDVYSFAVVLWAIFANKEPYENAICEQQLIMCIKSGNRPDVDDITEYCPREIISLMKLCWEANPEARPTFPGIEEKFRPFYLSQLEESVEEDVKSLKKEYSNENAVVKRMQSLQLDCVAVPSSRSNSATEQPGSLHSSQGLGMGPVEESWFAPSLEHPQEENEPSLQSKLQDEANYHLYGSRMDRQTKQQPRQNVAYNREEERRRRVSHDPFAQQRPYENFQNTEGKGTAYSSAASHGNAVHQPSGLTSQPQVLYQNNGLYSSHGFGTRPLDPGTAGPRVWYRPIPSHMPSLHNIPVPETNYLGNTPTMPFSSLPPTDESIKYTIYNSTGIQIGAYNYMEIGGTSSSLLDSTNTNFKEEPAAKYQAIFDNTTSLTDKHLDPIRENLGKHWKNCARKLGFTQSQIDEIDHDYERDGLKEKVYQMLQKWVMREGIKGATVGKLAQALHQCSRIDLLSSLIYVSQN
Protocol: This assay was completed using the Kinase Profiler service provided by Eurofins. The experimental method was as follows: The small molecule compound to be tested (0.001-10 µM) and the protein kinase to be tested were incubated with a buffer containing a substrate, 10 mM magnesium acetate, and [γ-^33P-ATP]. The reaction was initiated by adding a Mg\ATPmix. After incubation at room temperature for a period of time, a 3% phosphate solution was added to the buffer to terminate the reaction. Subsequently, 10 µL of the reaction mixture was quantitatively pipetted and dropped onto P30 filter paper. The paper was washed three times with 75 mM phosphate solution and once with methanol. After drying, scintillation fluid was added for scinticounting. The inhibitory activity of the compound was expressed as the half-maximal inhibitory concentration (IC50). The IC50 values were derived by fitting the inhibition rates corresponding to the respective concentration gradients.

HT-29 cells = test: In vitro assay for protection of HT-29 cells from necroptosis (TNFα/Smac mimetic/Z-VAD-FMK induction, CCK8 readout); format: cell-based; conditions: read-out: HT-29 (EC50)
MLK2/3 kinase = test: In vitro MLK2/3 kinase assay (ADP-Glo method, ICE Bioscience); format: biochemical
Protocol: The in vitro MLK2/3 kinase assay utilized the ADP-Glo method provided by ICE Bioscience INC. A drug screening system based on MLK2/3 kinase was employed to evaluate the inhibiting ability of small molecule compounds against kinase activity. The experimental method is as follows: ADP-Glo Method • 1. 2 × ATP/substrate solution and 2 × kinase solution were prepared using kinase reaction buffer. • 2. 40 nL of the compound diluent was transferred into a 384-well plate using an Echo 655. After centrifugation, 2 µL of 2 × kinase solution was added to the 384-well plate, centrifuged at 1000 rpm for 1 min, and incubated at 25°C for 10 min; • 3.2 µL of 2 × substrate and ATP solution was added into the 384-well plate, centrifuged at 1000 rpm for 1 min, and incubated at 25°C for 60 min. • 4. 4 µL of ADP-Glo was transferred to a 384-well plate, centrifuged at 1000 rpm for 1 min, and incubated at 25°C for 40 min. • 5. 8 µL of test solution was transferred to a 384-well plate, centrifuged at 1000 rpm for 1 min, and incubated at 25°C for 40 min. • 6. The luminescence signal was read using a multifunctional microplate reader. • 7. Data Analysis
The IC50 (half inhibitory concentration) of a compound was obtained using the following non-linear fitting formula: Y = Bottom + (Top−Bottom)/(1+10^(∧)((LogIC50−X)*HillSlope)) [formula] • X: Compound concentration log value • Y: Compound inhibition rate (% inh)

[1] = TNFα/Smac mimetic/Z-VAD-FMK for 24 h, inhibition of necroptosis
[2] = compound 0.001-10 µM, read-out: RIPK1(IC50)

Compound: C[C@H](NC(=O)c1cn(C)c2ccc(-c3ccn4nc(NC(=O)C(=O)N5CCOCC5)nc4c3)cc12)c1ccc(F)cc1 [Compound 9]
IC50 (RIPK1 Kinase): 0.01 to 0.1 µM

Compound: C[C@H](NC(=O)c1cn(C)c2ccc(-c3ccn4nc(NC(=O)CN5CCOC[C@@H]5C)nc4c3)cc12)c1ccc(F)cc1 [Compound 60]
IC50 (RIPK1 Kinase): 0.01 to 0.1 µM

Compound: CC(c1ccc(F)cc1)n1cnc(-c2cn(C)c3ccc(-c4ccn5nc(NC(=O)C6CC6)nc5c4)cc23)n1 (stereo not shown) [Compound 210]
EC50 (HT-29 cells; [1]): 0.1 to 1 µM
IC50 (RIPK1 Kinase; [2]): 1 to 10 µM

Compound: C[C@H](NC(=O)c1cn(C)c2ccc(-c3ccn4nc(NC(=O)CN5CCC(O)CC5)nc4c3)cc12)c1ccc(F)cc1 [Compound 6]
IC50 (RIPK1 Kinase): 0.01 to 0.1 µM

Compound: Cn1cc(C(=O)N2CC(F)CC2c2ccc(F)cc2)c2cc(-c3ccn4nc(NC(=O)C5CC5)nc4c3)ccc21 (stereo not shown) [Compound 156]
IC50 (RIPK1 Kinase): 0.01 to 0.1 µM

Compound: C[C@H](NC(=O)c1cn(C)c2ccc(-c3ccn4nc(NC(=O)CN5C6CC7CC(C6)C(O)C5C7)nc4c3)cc12)c1ccc(F)cc1 (stereo partly shown) [Compound 59]
EC50 (HT-29 cells; [1]): < 0.001 µM
IC50 (RIPK1 Kinase; [2]): 0.01 to 0.1 µM

Compound: COCCNCC(=O)Nc1nc2cc(-c3ccc4c(c3)c(C(=O)N[C@@H](C)c3ccc(F)cc3)cn4C)ccn2n1 [Compound 68]
IC50 (RIPK1 Kinase): 0.01 to 0.1 µM

Compound: C[C@H](NC(=O)c1cn(C)c2ccc(-c3ccn4nc(NC(=O)CN5CC6CCC(C5)O6)nc4c3)cc12)c1ccc(F)cc1 [Compound 71]
IC50 (RIPK1 Kinase): 0.01 to 0.1 µM

Compound: C[C@H](NC(=O)c1cn(C)c2ccc(-c3ccn4nc(NC(=O)[C@@H]5CCC(=O)N5)nc4c3)cc12)c1ccc(F)cc1 [Compound 14]
IC50 (RIPK1 Kinase): 0.01 to 0.1 µM

Compound: CC(=O)Nc1nc2cc(-c3ccc4c(c3)c(C(=O)NC3CCc5cc(F)ccc53)cn4C)ccn2n1 (single isomer, unassigned) [Compound 127]
EC50 (HT-29 cells; Homo sapiens, HT-29, 24 h): 1 to 10 µM
IC50 (RIPK1 Kinase): 0.1 to 1 µM

Compound: C[C@H](NC(=O)c1cn(C)c2ccc(-c3ccn4nc(NC(=O)CN5CC(O)CC5=O)nc4c3)cc12)c1ccc(F)cc1 (single isomer, unassigned) [Compound 3]
EC50 (HT-29 cells; Homo sapiens, HT-29, 24 h): 0.01 to 0.1 µM
IC50 (RIPK1 Kinase): 0.01 to 0.1 µM

Compound: CC(=O)Nc1nc2cc(-c3ccc4c(c3)c(C(=O)N[C@H]3CCc5ccc(F)cc53)cn4C)ccn2n1 [Compound 124]
EC50 (HT-29 cells; Homo sapiens, HT-29, 24 h): 0.001 to 0.01 µM
IC50 (RIPK1 Kinase): 0.01 to 0.1 µM

Compound: C[C@@H](c1ccc(F)cc1)N(C)C(=O)c1cn(C)c2ccc(-c3ccn4nc(NC(=O)C5CC5)nc4c3)cc12 [Compound 175]
EC50 (HT-29 cells; Homo sapiens, HT-29, 24 h): < 0.001 µM
IC50 (RIPK1 Kinase): 0.01 to 0.1 µM

Compound: C[C@H](NC(=O)c1cn(C)c2ccc(-c3ccn4nc(NC(=O)CN5CCOC(C)(C)C5)nc4c3)cc12)c1ccc(F)cc1 [Compound 18]
IC50 (RIPK1 Kinase): 0.01 to 0.1 µM

IC50 (RIPK1 Kinase; [2]): 0.01 to 0.1 µM
Compound: CC(=O)Nc1nc2cc(-c3ccc4c(c3)c(C(=O)N[C@H]3CCCc5cc(F)ccc53)cn4C)ccn2n1 [Compound 138]

Compound: C[C@H](NC(=O)c1cn(C)c2ccc(-c3ccn4nc(NC(=O)CN5CCOCC5)nc4c3)cc12)c1ccc(F)cc1 [Compound 75]
IC50 (MLK2/3 kinase): 0.01 to 0.1 µM
IC50 (RIPK1 Kinase): 0.001 to 0.01 µM

Compound: C[C@H](NC(=O)c1cn(C)c2ccc(-c3ccn4nc(NC(=O)CN5CC(C)(C#N)C5)nc4c3)cc12)c1ccc(F)cc1 [Compound 29]
IC50 (RIPK1 Kinase): 0.01 to 0.1 µM

Compound: Cn1cc(C(=O)N[C@H]2CCc3cc(C#N)ccc32)c2cc(-c3ccn4nc(NC(=O)C5CC5)nc4c3)ccc21 [Compound 130]
IC50 (RIPK1 Kinase): 0.01 to 0.1 µM

Compound: C[C@H](NC(=O)c1cn(C)c2ccc(-c3ccn4nc(NC(=O)CN(C)C)nc4c3)cc12)c1ccc(F)cc1 [Compound 40]
IC50 (RIPK1 Kinase): 0.01 to 0.1 µM

Compound: Cn1cc(C(=O)Nc2nc3cc(-c4ccc5c(c4)c(C(=O)N[C@H]4CCc6ccc(F)cc64)cn5C)ccn3n2)cn1 [Compound 122]
IC50 (RIPK1 Kinase): 0.1 to 1 µM

Compound: Cn1cc(C(=O)N[C@H](c2ccc(F)cc2)C(F)F)c2cc(-c3ccn4nc(NC(=O)C5CC5)nc4c3)ccc21 [Compound 161]
IC50 (RIPK1 Kinase): 0.001 to 0.01 µM

Compound: C[C@H](NC(=O)c1cn(C)c2ccc(-c3ccn4nc(NC(=O)CN5CCN(C)CC5)nc4c3)cc12)c1ccc(F)cc1 [Compound 51]
IC50 (RIPK1 Kinase): 0.01 to 0.1 µM

Compound: C[C@H](NC(=O)c1cn(C)c2ccc(-c3ccn4nc(NC(=O)CN(C)CCO)nc4c3)cc12)c1ccc(F)cc1 [Compound 74]
IC50 (MLK2/3 kinase): 0.01 to 0.1 µM
IC50 (RIPK1 Kinase): 0.01 to 0.1 µM

Compound: C[C@H](NC(=O)c1cn(C)c2ccc(-c3ccn4nc(NC(=O)CN5CC(F)(F)C5)nc4c3)cc12)c1ccc(F)cc1 [Compound 42]
IC50 (RIPK1 Kinase): 0.01 to 0.1 µM

Compound: C[C@H](NC(=O)c1nn(C)c2ccc(-c3ccn4nc(NC(=O)CN5CCOCC5)nc4c3)cc12)c1ccc(F)cc1 [Compound 196]
IC50 (RIPK1 Kinase): 0.01 to 0.1 µM

Compound: C[C@H](NC(=O)c1cn(C)c2ccc(-c3ccn4nc(NC(=O)CN5C[C@H]6C[C@@H]5CO6)nc4c3)cc12)c1ccc(F)cc1 [Compound 39]
IC50 (RIPK1 Kinase): 0.01 to 0.1 µM

Compound: C[C@H](NC(=O)c1cn(C)c2ccc(-c3ccn4nc(NC(=O)C5CCOC5)nc4c3)cc12)c1ccc(F)cc1 (stereo partly shown) [Compound 106]
IC50 (RIPK1 Kinase): 0.01 to 0.1 µM

Compound: C[C@H](NC(=O)c1cn(C)c2ccc(-c3ccn4nc(NC(=O)CN5CCC6(CC5)OCCO6)nc4c3)cc12)c1ccc(F)cc1 [Compound 27]
IC50 (RIPK1 Kinase): 0.01 to 0.1 µM

Compound: CC(C(=O)Nc1nn(C)c2ccc(-c3ccn4nc(NC(=O)C5CC5)nc4c3)cc12)c1ccc(F)cc1 (stereo not shown) [Compound 182]
IC50 (RIPK1 Kinase): 0.1 to 1 µM

Compound: Cn1cc(C(=O)N[C@H]2CCc3ccc(F)cc32)c2cc(-c3ccn4nc(NC(=O)[C@H]5CCCO5)nc4c3)ccc21 [Compound 121]
IC50 (RIPK1 Kinase): 0.01 to 0.1 µM

Compound: C[C@H](NC(=O)c1cn(C)c2ccc(-c3ccn4nc(NC(=O)CN5CCC(N6CCOCC6)CC5)nc4c3)cc12)c1ccc(F)cc1 [Compound 38]
IC50 (RIPK1 Kinase): 0.01 to 0.1 µM

Compound: C[C@@H]1CN(CC(=O)Nc2nc3cc(-c4ccc5c(c4)c(C(=O)N[C@@H](C)c4ccc(F)cc4)cn5C)ccn3n2)C[C@H](C)O1 [Compound 46]
IC50 (RIPK1 Kinase): 0.01 to 0.1 µM
